ChEMBL document CHEMBL1201862, “PubChem BioAssay data set” (2004)
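48-hour exposure; five concentrations; linearly interpolated endpoints. GI50 marks 50% less growth.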 Activity calls are given as the source filed them. No stated cut-off is given here; in the data, active = GI50 up to about 1.1 µM and inactive = higher.

Columns and labels:
Experiment in all cases: DTP human tumour cell line panel, 48 h
OVCAR-4 = system: OVCAR-4
SF-268 = system: SF-268
MOLT-4 = system: MOLT-4
KM12 = system: KM12
HOP-92 = system: HOP-92
ACHN = system: ACHN
SK-MEL-28 = system: SK-MEL-28
NCI-H460 = system: NCI-H460
MDA-MB-435 = system: MDA-MB-435
A498 = system: A498
TK-10 = system: TK-10
U-251 = system: U-251
NCI/ADR-RES = system: NCI/ADR-RES
SF-295 = system: SF-295
CAKI-1 = system: CAKI-1
IGROV-1 = system: IGROV-1
UACC-62 = system: UACC-62
HOP-62 = system: HOP-62
SNB-75 = system: SNB-75
NCI-H23 = system: NCI-H23
UACC-257 = system: UACC-257
Malme-3M = system: Malme-3M
SN12C = system: SN12C
COLO 205 = system: COLO 205
SW-620 = system: SW-620
SK-MEL-2 = system: SK-MEL-2
SK-OV-3 = system: SK-OV-3
BT-549 = system: BT-549
T47D = system: T47D
M14 = system: M14
Hs-578T = system: Hs-578T
HCT-15 = system: HCT-15
RXF 393 = system: RXF 393
SF-539 = system: SF-539
UO-31 = system: UO-31
LOX IMVI = system: LOX IMVI
HT-29 = system: HT-29
DU-145 = system: DU-145
K562 = system: K562
NCI-H226 = system: NCI-H226
EKVX = system: EKVX
SK-MEL-5 = system: SK-MEL-5
SR = system: SR
CCRF-CEM = system: CCRF-CEM
OVCAR-8 = system: OVCAR-8
PC-3 = system: PC-3
NCI-H522 = system: NCI-H522
OVCAR-5 = system: OVCAR-5
MCF7 = system: MCF7
HL-60 = system: HL-60

CCC1CN(C(=O)c2ccccc2)C(Cc2c[nH]c3ccccc23)C(=O)C1CC(=O)OC (stereo not given)
GI50 (OVCAR-4): > 100 µM (inactive) | GI50 (SF-268): > 100 µM (inactive) | GI50 (MOLT-4): 27.7 µM (inactive) | GI50 (KM12): 59.2 µM (inactive) | GI50 (HOP-92): > 100 µM (inactive) | GI50 (ACHN): > 100 µM (inactive) | GI50 (SK-MEL-28): > 100 µM (inactive) | GI50 (NCI-H460): 43.4 µM (inactive) | GI50 (MDA-MB-435): > 100 µM (inactive) | GI50 (A498): 1.09 µM (active) | GI50 (TK-10): > 100 µM (inactive) | GI50 (U-251): 41.6 µM (inactive) | GI50 (NCI/ADR-RES): 86.7 µM (inactive) | GI50 (SF-295): > 100 µM (inactive) | GI50 (CAKI-1): 54.7 µM (inactive) | GI50 (IGROV-1): 72.4 µM (inactive) | GI50 (UACC-62): 32.1 µM (inactive) | GI50 (HOP-62): 39 µM (inactive) | GI50 (SNB-75): 88.3 µM (inactive) | GI50 (NCI-H23): 74.6 µM (inactive) | GI50 (UACC-257): > 100 µM (inactive) | GI50 (Malme-3M): 55.6 µM (inactive) | GI50 (SN12C): > 100 µM (inactive) | GI50 (COLO 205): > 100 µM (inactive) | GI50 (SW-620): > 100 µM (inactive) | GI50 (SK-MEL-2): > 100 µM (inactive) | GI50 (SK-OV-3): > 100 µM (inactive) | GI50 (BT-549): > 100 µM (inactive) | GI50 (T47D): > 100 µM (inactive) | GI50 (M14): 58.6 µM (inactive) | GI50 (Hs-578T): 51.8 µM (inactive) | GI50 (HCT-15): > 100 µM | GI50 (RXF 393): > 100 µM (inactive) | GI50 (SF-539): > 100 µM (inactive) | GI50 (UO-31): 35.2 µM (inactive) | GI50 (LOX IMVI): 90.6 µM (inactive) | GI50 (HT-29): 28 µM (inactive) | GI50 (DU-145): > 100 µM (inactive) | GI50 (K562): 47.8 µM (inactive) | GI50 (NCI-H226): > 100 µM (inactive) | GI50 (EKVX): 77.4 µM (inactive) | GI50 (SK-MEL-5): 72.8 µM (inactive) | GI50 (SR): 36.6 µM (inactive) | GI50 (CCRF-CEM): 51.4 µM (inactive) | GI50 (OVCAR-8): 79.6 µM (inactive) | GI50 (PC-3): 46 µM (inactive) | GI50 (NCI-H522): 50.9 µM (inactive) | GI50 (OVCAR-5): > 100 µM (inactive) | GI50 (MCF7): 57.5 µM (inactive) | GI50 (HL-60): 31.6 µM (inactive)
